Earlier results in publication PMC4315033, “The regulation of muscle mass by endogenous glucocorticoids” (Frontiers in Physiology, 2015).

Experiments:
MAFbx and MuRF1 = system: MAFbx and MuRF1; design: method as in Frost et al., 2007; details: adult rats, ref Frost et al., 2007
MAFbx, MuRF1, and Foxo1 = system: MAFbx, MuRF1, and Foxo1; design: method as in Braun et al., 2011; details: inflammatory cytokines delivered directly into the brain; ref Braun et al., 2011
muscle wasting = system: muscle wasting; design: method as in Song et al., 2005; details: angiotensin II infused at concentrations mimicking endogenous production in CKD, co-administration; ref Song et al., 2005
muscle explants = system: muscle explants; design: method as in Tiao et al., 1996; details: juvenile rats, explants harvested 16 h after CLP; ref Tiao et al., 1996
muscle protein breakdown = system: muscle protein breakdown; design: method as in Zamir et al., 1992; details: ref Zamir et al., 1992
cultured myotubes [1] = system: cultured myotubes; design: method as in Biedasek et al., 2011; details: ref Biedasek et al., 2011
[2] = system: mineralocorticoid receptor; design: method as in Chapman et al., 2013; details: ref Chapman et al., 2013
GR^dim mice = system: GR^dim mice; design: method as in Reichardt et al., 1998; Tuckermann et al., 1999; details: ref Reichardt et al., 1998, Tuckermann et al., 1999
muscle atrophy = system: muscle atrophy; design: method as in Hu et al., 2009; details: ref Hu et al., 2009
TRAF6 = system: TRAF6; design: method as in Sun et al., 2014; details: pharmacologic doses; ref Sun et al., 2014
miR27a and b = system: miR27a and b; design: method as in Allen and Loh, 2011; details: ref Allen and Loh, 2011
cultured myotubes [3] = system: cultured myotubes; design: method as in Lokireddy et al., 2012; details: ref Lokireddy et al., 2012

CC#C[C@]1(O)CC[C@H]2[C@@H]3CCC4=CC(=O)CCC4=C3[C@@H](c3ccc(N(C)C)cc3)C[C@@]21C [mifepristone]
induction of MAFbx and MuRF1 in septic rats (MAFbx and MuRF1; CLP, 24 h): failed to alter | induction of MAFbx and MuRF1 by dexamethasone (MAFbx and MuRF1; similar time point): effectively blocking | half-life (in words) (in vivo): very short | half-life (rodents, ref Heikinheimo et al., 1994): 1 to 2 h | induction of MAFbx, MuRF1, and Foxo1 in muscle (MAFbx, MuRF1, and Foxo1): blocked | angiotensin II induced muscle wasting (muscle wasting): reversed | tyrosine release from muscle explants (muscle explants): significantly reduced | activity at other steroid receptors (other steroid receptors): has activity | mortality (muscle protein breakdown; concurrent cytokine and mifepristone administration): ~50% | induction of muscle protein degradation brought about by tumor necrosis factor (TNF) (muscle protein breakdown; concurrent mifepristone): attenuates | proteolysis accompanied by interleukin-1 α administration (muscle protein breakdown; concurrent mifepristone): not blocked

C[C@]12CCC(=O)C=C1CC[C@@H]1[C@@H]2C(=O)C[C@@]2(C)[C@H]1CC[C@]2(O)C(=O)CO [cortisone]
binding to the GR (GR): does not bind | proteolysis and atrophy in cultured myotubes (cultured myotubes [1]): capable of inducing

C[C@]12CCC(=O)C=C1CC[C@@H]1[C@@H]2[C@@H](O)C[C@@]2(C)[C@H]1CC[C@]2(O)C(=O)CO [Cortisol]
affinity for mineralocorticoid receptor relative to GR [2]: higher affinity

C[C@@H]1C[C@H]2[C@@H]3CCC4=CC(=O)C=C[C@]4(C)[C@@]3(F)[C@@H](O)C[C@]2(C)[C@@]1(O)C(=O)CO [dexamethasone]
PMA-induced skin inflammation (GR^dim mice): continued to suppress | expression of genes regulating carbohydrate balance (GR^dim mice): failed to alter | muscle atrophy, given in isolation (muscle atrophy; dose estimated to mimic endogenous concentrations in diabetic animals): insufficient to evoke substantial atrophy | muscle atrophy in diabetic adrenalectomized mice (muscle atrophy; same dose, streptozotocin-induced diabetes): restores normal muscle atrophy | TRAF6 expression (TRAF6): increase | levels of miR27a and b in skeletal muscle (miR27a and b): decrease | Mul1 expression (cultured myotubes [3]): induces | mitophagy (cultured myotubes [3]): induces
